Assay results published in patent US20050085491A1, “Novel crystalline forms of valacyclovir hydrochloride” (priority 2003, published 2005).
“Also recorded” adds a separate entry of the source.

Experiments:
[1] = transformation of crystalline form on drying or squeezing (form identified by XRD); assay type: physicochemical
Experimental: All powder x-ray diffraction patterns were obtained by methods known in the art using a Scintag X′TRA X-ray powder diffractometer, equipped with a solid state Si(Li) detector thermoelectrically cooled, at scanning speed of 3° min.^−1. The scanning range was 2-40 degrees two-theta. Copper radiation of […] was used. The term x-ray diffraction “peaks” as used herein refers to x-ray diffraction reflections measured using an x-ray powder diffractometer. “Wet” samples (i.e. samples not dried) were analyzed “as is”. Dry samples were gently ground before analysis.
In yet another embodiment, the present invention relates to transformation, especially by drying or thermal treatment, of herein disclosed crystalline forms of valacyclovir hydrochloride to valacyclovir hydrochloride form I.
In a further embodiment, the present invention relates to transformation, especially by drying or squeezing, of herein disclosed crystalline forms of valacyclovir hydrochloride to valacyclovir hydrochloride for IV.

[2] = transformation of crystalline form on exposure to relative humidity; assay type: physicochemical; conditions: atmosphere of about 50% relative humidity for a day or more
[3] = oral administration; cited from earlier work
[4] = oral administration, healthy adults; cited from earlier work
[5] = drying at 50° to 60° C. for about 30 min or more, hydrochloride
[6] = drying, conditions not stated, hydrochloride

With `CC(C)[C@H](N)C(=O)OCCOCn1cnc2c(=O)nc(N)[nH]c21.Cl` [form IX, valacyclovir hydrochloride] the “crystalline form obtained on drying” value [1, 5] was “yields an anhydrous form of valacyclovir hydrochloride” and the “crystalline form obtained on drying” value [1, 6] was “mixture of form I and anhydrous form”.

For `CC(C)[C@H](N)C(=O)OCCOCn1cnc2c(=O)nc(N)[nH]c21.Cl` [form V, valacyclovir hydrochloride], the “crystalline form before and after drying” value ([1]; dried at 50° C. under vacuum, hydrochloride) was “valacyclovir hydrochloride form V” and the “crystalline form obtained on drying” value [1, 6] was “form V”.

With `CC(C)[C@H](N)C(=O)OCCOCn1cnc2c(=O)nc(N)[nH]c21.Cl` [form VIII, valacyclovir hydrochloride] the “crystalline form obtained on drying” value ([1]; drying at 20° to 120° C. for at least about 30 min) was “yields a hydrate of valacyclovir hydrochloride form I” and the “crystalline form obtained on drying” value ([1]; drying at 50-120° C.) was “resulted in form I”.

With `CC(C)[C@H](N)C(=O)OCCOCn1cnc2c(=O)nc(N)[nH]c21.Cl` [form X, valacyclovir hydrochloride] the “crystalline form obtained on drying” value [1, 5] was “yields a hydrate of valacyclovir form I”.

In the case of `CC(C)[C@H](N)C(=O)OCCOCn1cnc2c(=O)nc(N)[nH]c21.Cl` [form XI, valacyclovir hydrochloride], the “crystalline form obtained on drying” value ([1]; about 700 mm Hg, about 35° C., after 16 hours, about 35% humidity) is reported as “form VIII”, the “crystalline form obtained on drying” value ([1]; about 700 mm Hg, about 35° C., after 20 hours, 30% humidity) is reported as “form IV” and the “crystalline form obtained on drying” value [1, 6] is reported as “transformed to form I; also recorded: converted to form I”. For the same compound, the “crystalline form obtained on drying” value ([1]; vacuum of 250-350 mm Hg at about 35 degrees up to humidity of about 20%) was “form IV”, the “crystalline form obtained on reducing the water content” value ([1]; water content reduced to about 15 to 25%, e.g. by drying at about 30° to about 50° C.) was “transformation to form IV” and the “crystalline form obtained on squeezing” value ([1]; wet sample squeezed on a Buchner filter up to humidity of about 20%) was “form VIII”.

With `CC(C)[C@H](N)C(=O)OCCOCn1cnc2c(=O)nc(N)[nH]c21.Cl` [form XII, valacyclovir hydrochloride] the “crystalline form obtained on exposure to humidity” value [2] was “transformation to valacyclovir hydrochloride form I”.

In the case of `CC(C)[C@H](N)C(=O)OCCOCn1cnc2c(=O)[nH]c(N)nc21` [valacyclovir, 1-valine, 2-[(2-amino-1,6-dihydro-6-oxo-9H-purin-9-yl)methoxy]ethyl ester], the “absorption from the gastrointestinal tract” value [3] is given as “rapidly absorbed” and the conversion to acyclovir [4] is given as “converted rapidly and virtually completely to acyclovir”.
